Results on 18 compounds are retold here after patent publication US20250163057A1, “DCN-1 MODULATING COMPOUNDS AND METHODS OF USE THEREOF” (Cellarity, Inc., priority 2023, published 2025).

Experiment [1] deals with DCN1 (DCUND1) protein PONY domain (Homo sapiens (Human), UniProt Q96GG9). The experiment can be described thus: TR-FRET assay, DCN1 binding with FAM-labeled probe. As to conditions: for IC50: TR FRET IC50 1 hr (nM). An outline of the steps: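 Biotinylated DCN1 PONY domain, labeled with streptavidin-Tb, was competed against a FAM-labeled non-covalent DCN1 inhibitor probe in buffer with TritonX and 200 mM NaCl. Conditions were 5 nM DCN1 with 20 nM FAM-probe, or 0.31 nM DCN1 with 100 nM FAM-plus 800 nM unlabeled probe. The TR-FRET ratio was read at 1, 5 and 24 h (0.1% DMSO).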
For orientation: Time-resolved FRET reads energy transfer from a long-lived donor to a nearby acceptor.

A further experiment concerns the target DCN1 protein (Homo sapiens (Human), UniProt Q96GG9). The experiment in a line: Intact Protein MS Analysis with the RapidFire-TOF System (covalent adduct formation). Type of experiment: binding. As to conditions: MS Emax; 400 nM DCN1, 3 hours at room temperature. Here is the method: An MS assay was performed to evaluate the ability of the compounds to covalently modify DCN-1.
DCN1 protein, His-TEV-DCN1, were expressed in E. Coli. The His-tagged protein was first purified with an Ni-NTA column. The His-tag was cleaved using His-tag TEV protease and the His-tags were removed using a second Ni-NTA column. Protein purity was verified with SDS-PAGE and intact MS. DCN1 was dissolved in a buffer containing 25 mM Tris-HCl, 200 mM NaCl, and 1 mM DTT at 400 nM. 11 concentrations of compounds were added to the DCN1 solution and incubated at room temperature for 3 hours, unless otherwise specified. The reaction plates were quenched by adding 0.2% formic acid. […] The cartridge was re-equilibrated with loading buffer for 1 second before collection of the next sample. The Q-TOF was operated in TOF-only positive ionization mode set to the following parameters: Gas Temp=350 C, Drying Gas=7 l/min, Nebulizer=50 psi, Sheath Gas Temp=400 C, Sheath Gas Flow=12 l/min, Vcap=4000 V, Nozzle Voltage=1000 V, Fragmentor=125 V, Skimmer=65 V and Oct 1 RF Vpp=750V. Raw MS data files were deconvoluted and analyzed using the Agilent MassHunter Bioconfirm software package to identify both parent protein and expected compound adduct mass signatures.

The mark [2] stands for this setting: 24 hr after treatment with compound, read-out: TR FRET IC50 24 hr.
The mark [3] stands for this setting: 1 hr after treatment with compound.
The mark [4] stands for this setting: read-out: TR FRET IC50 1 hr, 1 hr after treatment with compound.

pIC50: −log10 of the molar value. Where two headings read alike, the source gives them in different places.

DCN1 protein, sequence (Q96GG9 whole entry): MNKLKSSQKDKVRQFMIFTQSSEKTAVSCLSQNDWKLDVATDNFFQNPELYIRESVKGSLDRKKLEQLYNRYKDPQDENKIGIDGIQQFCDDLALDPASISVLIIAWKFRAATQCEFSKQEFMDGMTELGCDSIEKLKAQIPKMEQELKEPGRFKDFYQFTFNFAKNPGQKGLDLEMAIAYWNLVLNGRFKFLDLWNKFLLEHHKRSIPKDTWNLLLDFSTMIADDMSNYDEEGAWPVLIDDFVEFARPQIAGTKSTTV
DCN1 (DCUND1) protein PONY domain, sequence (Q96GG9 60-248): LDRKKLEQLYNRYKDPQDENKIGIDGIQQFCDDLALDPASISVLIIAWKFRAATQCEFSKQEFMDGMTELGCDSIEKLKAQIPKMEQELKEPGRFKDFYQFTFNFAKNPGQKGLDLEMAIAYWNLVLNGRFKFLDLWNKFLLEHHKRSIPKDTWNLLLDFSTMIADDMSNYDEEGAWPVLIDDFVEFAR

A word on the pIC50: it is the IC50 on a negative log10 scale, so that one unit is a factor of ten. As a reminder, the IC50 is the point on the concentration scale where inhibition reaches its midpoint. With `C/C=C/C(=O)NCc1nn(-c2ccccc2)c2c1[C@H](c1ccc(F)cc1)[C@H](NC(=O)c1cccc(C(F)(F)F)c1)C(=O)N2CC` (racemic) [Compound I-123], the pIC50 in experiment [1] (setting [2]) is 6.00 to 6.70. The half-inhibitory concentration (IC50) in experiment [1] (setting [3]) is 200 to 1000 nM. Moreover, on DCN1 protein, the “% Adduct Formation” value is “+ (MS Emax % adduct formation greater than or equal to 0.0 and less than or equal to 30.0)”. `CCN1C(=O)[C@@H](NC(=O)c2cccc(C(F)(F)F)c2)[C@@H](c2ccc(F)cc2)c2c(NS(=O)(=O)CCl)nn(-c3ccccc3)c21` (racemic) [Compound I-163]: the pIC50 in experiment [1] (setting [2]) and in experiment [1] (setting [4]) was ≥ 6.70 each time. In addition, on DCN1 protein, the “% Adduct Formation” value was “+ (MS Emax % adduct formation greater than or equal to 0.0 and less than or equal to 30.0)”. As to `CCN1C(=O)[C@@H](NC(=O)c2cccc(C(F)(F)F)c2)[C@@H](c2ccc(F)cc2)c2c(CN(C)C(=O)[C@H](C)Cl)nn(-c3ccccc3)c21` (stereo in doubt) [Compound I-33], the pIC50 in experiment [1] (setting [2]) was 5.52 to 6.00. Moreover, the IC50 in experiment [1] (setting [3]) lay within 1000 to 3000 nM. On DCN1 protein, the “% Adduct Formation” value was “+ (MS Emax % adduct formation greater than or equal to 0.0 and less than or equal to 30.0)”. Turning to `CCN1C(=O)[C@@H](NC(=O)c2cccc(C(F)(F)F)c2)[C@@H](c2ccc(F)cc2)c2c(CN(C)C(=O)[C@H](C)Cl)nn(-c3ccccc3)c21` (stereo in doubt) [Compound I-30], the results for the pIC50 in experiment [1] (setting [2]) and in experiment [1] (setting [4]) were 5.52 to 6.00 and < 5.52, respectively. The “% Adduct Formation” value on DCN1 protein is “+ (MS Emax % adduct formation greater than or equal to 0.0 and less than or equal to 30.0)”. For `CCN1C(=O)[C@@H](NC(=O)c2cccc(C(F)(F)F)c2)[C@@H](c2ccc(F)cc2)c2c(C(=O)N3CCCC[C@@H]3C#N)nn(-c3ccccc3)c21` [Compound I-121], the pIC50 in experiment [1] (setting [2]) and in experiment [1] (setting [4]) was ≥ 6.70 each time. Moreover, on DCN1 protein, the “% Adduct Formation” value is “++ (MS Emax % adduct formation greater than 30.0 and less than or equal to 80.0)”. Regarding `CCN1C(=O)[C@@H](NC(=O)c2cccc(C(F)(F)F)c2)[C@@H](c2ccc(F)cc2)c2c(C/C=C/C(=O)OC)nn(-c3ccccc3)c21` (racemic) [Compound I-131, rac-methyl (E)-4-((4R,5R)-7-ethyl-4-(4-fluorophenyl)-6-oxo-1-phenyl-5-(3-(trifluoromethyl)benzamido)-4,5,6,7-tetrahydro-1H-pyrazolo[3,4-b]pyridin-3-yl)but-2-enoate], in experiment [1] (setting [2]), the pIC50 is 6.00 to 6.70. In experiment [1] (setting [3]), the IC50 lay within 1000 to 3000 nM. In addition, the “% Adduct Formation” value on DCN1 protein is “+ (MS Emax % adduct formation greater than or equal to 0.0 and less than or equal to 30.0)”. For `CCN1C(=O)[C@@H](NC(=O)c2cccc(C(F)(F)F)c2)[C@@H](c2ccc(F)cc2)c2c([C@H](C)NC(=O)C(C)Cl)nn(-c3ccccc3)c21` (mixture of isomers) [Compound I-211], the “% Adduct Formation” value on DCN1 protein is “+ (MS Emax % adduct formation greater than or equal to 0.0 and less than or equal to 30.0)”. Still for that read-out and setting: to `CCN1C(=O)[C@@H](NC(=O)c2cccc(C(F)(F)F)c2)[C@@H](c2ccc(F)cc2)c2c(C=O)nn(-c3ccccc3)c21` (racemic) [Compound I-189, rac-N-((4R,5R)-7-ethyl-4-(4-fluorophenyl)-3-formyl-6-oxo-1-phenyl-4,5,6,7-tetrahydro-1H-pyrazolo[3,4-b]pyridine-5-yl)-3-(trifluoromethyl)benzamide] belongs “+ (MS Emax % adduct formation greater than or equal to 0.0 and less than or equal to 30.0)”; to `CC#Cc1nn(-c2ccccc2)c2c1[C@H](c1ccc(F)cc1)[C@H](NC(=O)c1cccc(C(F)(F)F)c1)C(=O)N2CC` (racemic) [Compound I-225, rac-N-((4R,5R)-7-ethyl-4-(4-fluorophenyl)-6-oxo-1-phenyl-3-(prop-1-yn-1-yl)-4,5,6,7-tetrahydro-1H-pyrazolo[3,4-b]pyridine-5-yl)-3-(trifluoromethyl)benzamide], “+ (MS Emax % adduct formation greater than or equal to 0.0 and less than or equal to 30.0)”; to `CCN1C(=O)[C@@H](NC(=O)c2cccc(C(F)(F)F)c2)[C@@H](c2ccc(F)cc2)c2c([C@@H](C)NC(=O)/C=C/CN(C)C)nn(-c3ccccc3)c21` (mixture of isomers) [Compound I-210], “+ (MS Emax % adduct formation greater than or equal to 0.0 and less than or equal to 30.0)”. For `CCN1C(=O)[C@@H](NC(=O)c2cccc(C(F)(F)F)c2)[C@@H](c2ccc(F)cc2)c2c([C@@H](C)NC(=O)C3=CCCC3)nn(-c3ccccc3)c21` (mixture of isomers) [Compound I-166], the “% Adduct Formation” value at DCN1 protein was “+ (MS Emax % adduct formation greater than or equal to 0.0 and less than or equal to 30.0)”. Take `CCN1C(=O)[C@@H](NC(=O)c2cccc(C(F)(F)F)c2)[C@@H](c2ccc(F)cc2)c2c([C@@H](C)NS(=O)(=O)CCl)nn(-c3ccccc3)c21` (mixture of isomers) [Compound I-215]: the “% Adduct Formation” value at DCN1 protein is “+ (MS Emax % adduct formation greater than or equal to 0.0 and less than or equal to 30.0)”.

Consider `CCN1C(=O)[C@@H](NC(=O)c2cccc(C(F)(F)F)c2)[C@@H](c2ccc(F)cc2)c2c([C@@H](C)NC(=O)C(F)Cl)nn(-c3ccccc3)c21` (stereo in doubt) [Compound I-239], for which the “% Adduct Formation” value on DCN1 protein was “+ (MS Emax % adduct formation greater than or equal to 0.0 and less than or equal to 30.0)”. The same measure, in the same setting: to `CCN1C(=O)[C@@H](NC(=O)c2cccc(C(F)(F)F)c2)[C@@H](c2ccc(F)cc2)c2c([C@@H](C)NC(=O)/C=C/C(F)(F)F)nn(-c3ccccc3)c21` (mixture of isomers) [Compound I-164] belongs “+ (MS Emax % adduct formation greater than or equal to 0.0 and less than or equal to 30.0)”.

Turning to `C=C(C(=O)N(C)C)c1nn(-c2ccccc2)c2c1[C@H](c1ccc(F)cc1)[C@H](NC(=O)c1cccc(C(F)(F)F)c1)C(=O)N2CC` (racemic) [Compound I-188, rac-N-((4R,5R)-3-(3-(dimethylamino)-3-oxoprop-1-en-2-yl)-7-ethyl-4-(4-fluorophenyl)-6-oxo-1-phenyl-4,5,6,7-tetrahydro-1H-pyrazolo[3,4-b]pyridine-5-yl)-3-(trifluoromethyl)benzamide], the “% Adduct Formation” value at DCN1 protein was “+ (MS Emax % adduct formation greater than or equal to 0.0 and less than or equal to 30.0)”. On the same count and under the same terms, to `C=C(C(=O)O)c1nn(-c2ccccc2)c2c1[C@H](c1ccc(F)cc1)[C@@H](NC(=O)c1cccc(C(F)(F)F)c1)C(=O)N2CC` (racemic) [Compound I-208, rac-2-((4R,5S)-7-ethyl-4-(4-fluorophenyl)-6-oxo-1-phenyl-5-(3-(trifluoromethyl)benzamido)-4,5,6,7-tetrahydro-1H-pyrazolo[3,4-b]pyridine-3-yl)acrylic acid] belongs “+ (MS Emax % adduct formation greater than or equal to 0.0 and less than or equal to 30.0)”. Still for that read-out and setting: to `C#Cc1nn(-c2ccccc2)c2c1[C@H](c1ccc(F)cc1)[C@H](NC(=O)c1cccc(C(F)(F)F)c1)C(=O)N2CC` (racemic) [Compound I-199, N-((4S,5S)-7-ethyl-3-ethynyl-4-(4-fluorophenyl)-6-oxo-1-phenyl-4,5,6,7-tetrahydro-1H-pyrazolo[3,4-b]pyridine-5-yl)-3-(trifluoromethyl)benzamide] belongs “+ (MS Emax % adduct formation greater than or equal to 0.0 and less than or equal to 30.0)”; to `C#CCNC(=O)c1nn(-c2ccccc2)c2c1[C@H](c1ccc(F)cc1)[C@H](NC(=O)c1cccc(C(F)(F)F)c1)C(=O)N2CC` (racemic) [Compound I-242], “+ (MS Emax % adduct formation greater than or equal to 0.0 and less than or equal to 30.0)”.
